Read-outs that look alike come from different tables or passages of the source.
Columns and labels:
[1] = test system: total facultative anaerobic bacteria; experiment: Gut microflora modulation in vivo, ileo-rectal contents of anastomosed piglets: total facultative anaerobic counts on Brucella agar; details: 300 ppm in feed; mean CFU per g ileal content dry matter; ten piglets; not significant
Enterococcus spp = experiment: Gut microflora modulation in vivo, ileo-rectal contents of anastomosed piglets: Enterococcus spp on Enterococci agar; details: 300 ppm in feed; ten piglets
[2] = type: in vivo; details: for FCR (kg/kg) / Feed intake / DWG / DWG relative to basal diet A (100) / FCR relative to basal diet A (100) / Feed intake relative to basal diet A (100): 400 ppm in diet (mixture 1: 150 ppm); for FCR (kg/kg) / Feed intake: mean ± standard deviation of 3 determinations; for DWG: mean ± standard deviation of 19 determinations; for DWG relative to basal diet A (100) / FCR relative to basal diet A (100) / Feed intake relative to basal diet A (100): value in brackets, control A = (100); for improvement of feed conversion ratio versus controls: 400 ppm in diet
[3] = test system: total lactic acid bacteria; experiment: Gut microflora modulation in vivo, ileo-rectal contents of anastomosed piglets: lactic acid bacteria on MRS agar; details: ten piglets
Enterobacteriacae = experiment: Gut microflora modulation in vivo, ileo-rectal contents of anastomosed piglets: Enterobacteriacae on V.R.B.D agar; details: mean CFU per g ileal content dry matter, ten piglets, not significant; for total Enterobacteriacae counts decreased relative to the control: 300 ppm in feed
Escherichia coli = experiment: Gut microflora modulation in vivo, ileo-rectal contents of anastomosed piglets: Escherichia coli counts; details: mean CFU per g ileal content dry matter, ten piglets, not significant
Staphylococcus spp = experiment: Gut microflora modulation in vivo, ileo-rectal contents of anastomosed piglets: Staphylococcus spp on Baird Parker agar; details: 300 ppm in feed; ten piglets
[4] = 300 ppm in feed, mean CFU per g ileal content dry matter, not significant

In the case of `Cc1cccc(C)c1O` [2,6-dimethylphenol], the “total facultative anaerobic bacteria counts increased relative to the control” value [1] is reported as 37%, the “effect on the population of Enterococcus spp (in words)” value (Enterococcus spp) is reported as “negative effect” and the “FCR (kg/kg)” value ([2]; day 0-14) is reported as 1.886 ± 0.06 kg/kg. The “Feed intake” value ([2]; day 0-14) was 350 ± 5 g/day, the “DWG” value ([2]; day 0-14) was 186 ± 45 g and the “DWG relative to basal diet A (100)” value ([2]; day 0-14) was “(103)”. The “FCR relative to basal diet A (100)” value ([2]; day 0-14) was “(99)”, the “Feed intake relative to basal diet A (100)” value ([2]; day 0-14) was “(103)” and the “FCR (kg/kg)” value ([2]; day 0-29) was 1.914 ± 0.053 kg/kg. For the same molecule, the “Feed intake” value ([2]; day 0-29) was 694 ± 27 g/day, the “DWG” value ([2]; day 0-29) was 272 ± 53 g and the “DWG relative to basal diet A (100)” value ([2]; day 0-29) was “(105)”. For the same molecule, the “FCR relative to basal diet A (100)” value ([2]; day 0-29) was “(100)”, the “Feed intake relative to basal diet A (100)” value ([2]; day 0-29) was “(106)” and the “effect on the total lactic acid bacteria (in words)” value ([3]; 300 ppm in feed) was “neutral effect”. For the same molecule, the “total Enterobacteriacae counts decreased relative to the control” value (Enterobacteriacae) was 68%.
For `O=C1/C(=C/c2ccc(O)c(O)c2)Oc2cc(O)cc(O)c21` [aureusidin], the “FCR (kg/kg)” value ([2]; day 0-14) was 1.965 ± 0.21 kg/kg, the “Feed intake” value ([2]; day 0-14) was 332 ± 52 g/day and the “DWG” value ([2]; day 0-14) was 189 ± 61 g. The “DWG relative to basal diet A (100)” value ([2]; day 0-14) was “(104)”, the “FCR relative to basal diet A (100)” value ([2]; day 0-14) was “(103)” and the “Feed intake relative to basal diet A (100)” value ([2]; day 0-14) was “(98)”. For the same molecule, the “FCR (kg/kg)” value ([2]; day 0-29) was 1.968 ± 0.018 kg/kg, the “Feed intake” value ([2]; day 0-29) was 686 ± 72 g/day and the “DWG” value ([2]; day 0-29) was 275 ± 48 g. For the same molecule, the “DWG relative to basal diet A (100)” value ([2]; day 0-29) was “(106)”, the “FCR relative to basal diet A (100)” value ([2]; day 0-29) was “(103)” and the “Feed intake relative to basal diet A (100)” value ([2]; day 0-29) was “(104)”. The “Escherichia coli counts decreased relative to the control” value (Escherichia coli; 150 ppm in feed) was 66%, the “total lactic acid bacteria counts decreased relative to the control” value ([3]; 150 ppm in feed, mean CFU per g ileal content dry matter, not significant) was 17% and the “Enterobacteriacae counts decreased relative to the control” value (Enterobacteriacae; 150 ppm in feed) was 30%.
In the case of `CCCc1ccc(O)c(OC)c1` [dihydroeugenol, 2-methoxy-4-propylphenol], the “total facultative anaerobic bacteria counts increased relative to the control” value [1] is reported as 12%, the “effect on the population of Enterococcus spp (in words)” value (Enterococcus spp) is reported as “neutral effect” and the “effect on the population of Staphylococcus spp (in words)” value (Staphylococcus spp) is reported as “neutral effect”. The “FCR (kg/kg)” value ([2]; day 0-14) was 1.776 ± 0.034 kg/kg, the “Feed intake” value ([2]; day 0-14) was 364 ± 46 g/day and the “DWG” value ([2]; day 0-14) was 208 ± 39 g. For the same molecule, the “DWG relative to basal diet A (100)” value ([2]; day 0-14) was “(115)”, the “FCR relative to basal diet A (100)” value ([2]; day 0-14) was “(93)” and the “Feed intake relative to basal diet A (100)” value ([2]; day 0-14) was “(107)”. For the same molecule, the “FCR (kg/kg)” value ([2]; day 0-29) was 1.88 ± 0.08 kg/kg, the “Feed intake” value ([2]; day 0-29) was 708 ± 85 g/day and the “DWG” value ([2]; day 0-29) was 285 ± 33 g. For the same molecule, the “DWG relative to basal diet A (100)” value ([2]; day 0-29) was “(110)”, the “FCR relative to basal diet A (100)” value ([2]; day 0-29) was “(98)” and the “Feed intake relative to basal diet A (100)” value ([2]; day 0-29) was “(108)”. The “improvement of feed conversion ratio versus controls” value ([2]; first 14 days of the experiment) was 7%, the “improvement of feed conversion ratio versus controls” value ([2]; whole observation period (29 days)) was 2% and the “improvement of the daily weight gain comparatively to the non supplemented control” value ([2]; whole observation period (29 days), dihydroeugenol 400 ppm, mixture 1 150 ppm) was 10%. For the same molecule, the “total lactic acid bacteria counts increased relative to the control” value [3, 4] was 26% and the “total Enterobacteriacae counts decreased relative to the control” value (Enterobacteriacae) was 67%.
For `Oc1ccc(CC=Cc2ccccc2)cc1` [4-cinnamylphenol], the “FCR (kg/kg)” value ([2]; day 0-14) was 1.82 ± 0.058 kg/kg, the “Feed intake” value ([2]; day 0-14) was 345 ± 42 g/day and the “DWG” value ([2]; day 0-14) was 193 ± 41 g. For the same molecule, the “DWG relative to basal diet A (100)” value ([2]; day 0-14) was “(107)”, the “FCR relative to basal diet A (100)” value ([2]; day 0-14) was “(96)” and the “Feed intake relative to basal diet A (100)” value ([2]; day 0-14) was “(102)”. The “FCR (kg/kg)” value ([2]; day 0-29) was 1.953 ± 0.048 kg/kg, the “Feed intake” value ([2]; day 0-29) was 670 ± 72 g/day and the “DWG” value ([2]; day 0-29) was 262 ± 53 g. The “DWG relative to basal diet A (100)” value ([2]; day 0-29) was “(101)”, the “FCR relative to basal diet A (100)” value ([2]; day 0-29) was “(102)” and the “Feed intake relative to basal diet A (100)” value ([2]; day 0-29) was “(102)”. For the same molecule, the “Escherichia coli counts decreased relative to the control” value (Escherichia coli; 300 ppm in feed) was 42%, the “total lactic acid bacteria counts decreased relative to the control” value [3, 4] was 22% and the “total Enterobacteriacae counts decreased relative to the control” value (Enterobacteriacae) was 36%.

Source: patent US20100119646A1, “Dihydroeugenol as Additive for feed” (DSM IP ASSETS B.V., priority 2007, published 2010)
